In series [1] the test system is hind limb skin blood flow. The series can be described thus: Peripheral blood flow increasing action in STZ-induced diabetic rats. The conditions noted are these: intravenous, 1 μg. The class given is in vivo, rat. The protocol:
Peripheral Blood Flow Increasing Action
Streptozotocin (STZ, 65 mg/kg) was intravenously injected to male SD rats (body weight 200-300 g) to prepare diabetic rats. One month later, STZ-induced diabetic rats were anesthetized with pentobarbital sodium and the blood flow in the hind limb skin was measured with laser blood flowmeter (ALF21R, Advance). The test compound was intravenously administered via catheter dwelled in the carotid arteries, and hind limb skin blood flow increasing action was observed. The blood flow increasing action of the test compound was expressed by increase percentage from the blood flow before administration.

Series [2] relates to CEM cells (human T cell type established cell). The series can be described thus: Inhibition of VLA integrin activation (phorbol ester-induced adhesion of CEM cells to fibronectin). The conditions noted are these: CCRF-CEM, concentration 100 μM, PMA-induced adhesion, read-out: Adhesion induction inhibition (%). The class given is cell-based.
The target of series [3] is T1, Human Platelet Rho Kinase (p160ROCK) (Homo sapiens, UniProt Q13464).
T1 construct: Human platelet p160ROCK was isolated by the method of Ishizaki et al; from tissue; host or cells: human platelets
T1 sequence (Q13464 whole entry): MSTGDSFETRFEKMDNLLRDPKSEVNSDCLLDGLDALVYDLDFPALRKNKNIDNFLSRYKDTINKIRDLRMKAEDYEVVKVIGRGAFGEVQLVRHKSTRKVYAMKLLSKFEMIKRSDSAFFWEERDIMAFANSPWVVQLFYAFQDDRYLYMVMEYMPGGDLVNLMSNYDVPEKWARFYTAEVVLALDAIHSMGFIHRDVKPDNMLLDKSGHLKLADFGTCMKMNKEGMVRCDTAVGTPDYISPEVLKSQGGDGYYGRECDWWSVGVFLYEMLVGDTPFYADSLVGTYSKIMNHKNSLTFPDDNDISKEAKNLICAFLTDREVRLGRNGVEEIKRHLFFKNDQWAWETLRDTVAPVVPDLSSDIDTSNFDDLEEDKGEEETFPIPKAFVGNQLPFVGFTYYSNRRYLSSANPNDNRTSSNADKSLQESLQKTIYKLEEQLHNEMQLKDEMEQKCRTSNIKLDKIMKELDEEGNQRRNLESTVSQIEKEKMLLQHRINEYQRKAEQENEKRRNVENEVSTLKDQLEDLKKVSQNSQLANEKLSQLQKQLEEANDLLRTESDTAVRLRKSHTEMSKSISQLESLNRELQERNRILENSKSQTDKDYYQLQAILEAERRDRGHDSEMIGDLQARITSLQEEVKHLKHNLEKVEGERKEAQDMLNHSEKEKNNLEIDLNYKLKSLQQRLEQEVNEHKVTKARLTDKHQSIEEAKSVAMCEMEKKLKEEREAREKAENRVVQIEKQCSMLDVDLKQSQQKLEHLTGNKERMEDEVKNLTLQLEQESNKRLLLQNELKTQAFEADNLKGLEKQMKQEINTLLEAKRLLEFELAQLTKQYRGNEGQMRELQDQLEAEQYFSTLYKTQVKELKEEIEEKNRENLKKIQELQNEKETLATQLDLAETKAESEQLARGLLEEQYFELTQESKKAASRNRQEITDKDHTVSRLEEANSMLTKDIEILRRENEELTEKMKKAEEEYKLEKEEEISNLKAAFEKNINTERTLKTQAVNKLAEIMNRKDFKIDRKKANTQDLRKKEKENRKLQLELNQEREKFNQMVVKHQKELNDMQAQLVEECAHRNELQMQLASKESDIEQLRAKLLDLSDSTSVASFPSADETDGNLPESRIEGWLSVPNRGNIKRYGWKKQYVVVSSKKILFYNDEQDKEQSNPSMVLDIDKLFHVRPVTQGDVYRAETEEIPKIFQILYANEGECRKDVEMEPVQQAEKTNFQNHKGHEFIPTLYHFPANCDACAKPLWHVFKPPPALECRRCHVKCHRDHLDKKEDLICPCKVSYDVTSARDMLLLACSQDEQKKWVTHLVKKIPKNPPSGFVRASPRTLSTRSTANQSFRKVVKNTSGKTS
The series can be described thus: Rho kinase inhibitory action (inhibition of human platelet Rho kinase (p160ROCK)). The conditions noted are these: histone substrate, 1 μM ATP. Type of series: biochemical. The protocol: Rho Kinase Inhibitory Action (Inhibition of Human Platelet Rho Kinase (p160ROCK))
(§1) Kinase assay included the following steps. That is, a reaction mixture (total amount 30 μl) containing 50 mM Hepes-NaOH (pH=7.4), 10 mM MgCl2, 5 mM MnCl2, 2 mM dithiothreitol, 0.02% Brij35, 1 μM [γ-^32P]ATP, 330 μg/ml histone, p160ROCK (2 μl) isolated by the method of Ishizaki et al. and the test compound was incubated at 30° C. for 20 minutes. The solution was mixed with a 1/3 amount of 4× Laemmli sample buffer, boiled for 5 minutes and applied to SDS-PAGE. The gel was stained with Coomassie Brilliant Blue and dried. The band of histone was cut out and assayed for radioactivity.

Another series has as its system Human SK-Mel-28 melanoma. The series can be described thus: Inhibition of cell growth of SK-Mel-28 melanoma. The class given is cell-based. The conditions noted are these: 72 hours, MTT. The protocol:
Inhibition of Cell Growth of SK-Mel-28 Melanoma
Human SK-Mel-28 melanoma (10^4 cells) and the test compound were suspended in RPMI1640 medium containing 100 μl of 10% FBS and incubated in a 96 well plate at 37° C. under 5% CO2 gas for 72 hours. After the incubation, 10 μl of MTT (5 mg/ml) was added to each well and the cells were incubated at 37° C. under 5% CO2 gas for 4 hours. Then, 10% sodium dodecyl sulfate and 0.01 N hydrochloric acid solution were each added by 10 μl to respective wells. After the plate was stood overnight, absorbance at 570 nm was measured using a microplate reader and the inhibition percentage (% cytotoxicity) was calculated by the following formula.
The cytotoxicity against human cultured tumor cells was confirmed by pigment method (Carmichael et al., Cancer Res., 47, 936-942, 1987: Mosman, J. Immunol. Methods, 65, 55-63, 1983) using 3-(4,5-dimethylthiazol-2-yl)-2,5-diphenyltetrazolium bromide (MTT).
The test compound was dissolved in dimethyl sulfoxide and diluted with RPMI 1640 medium before use. The final dimethyl sulfoxide concentration was adjusted to not more than 0.25%.

Series [4] relates to trachea specimen contracted with acetylcholine. The series can be described thus: Effect on contraction by acetylcholine of trachea specimen removed from guinea pig. The conditions noted are these: Cavia porcellus, acetylcholine 10^−6 M contraction, 50% relaxation vs papaverine 10^−4 M maximum, read-out: Trachea relaxing action.
Procedure: Male Hartley guinea pigs (body weight 260-390 g) were anesthetized by the peritoneal administration of pentobarbital sodium (100 mg/kg) and exsanguinated, whereafter trachea was removed. The anterior cartilage of the trachea was opened and the band was cut in a 3 mm width strip to give a specimen. The specimen was hung in a Magnus bath (40 ml) filled with Krebs-Henseleit solution (NaCl 117 mM; KCl 4.7 mM; CaCl2 2.5 mM; MgSO4 1.2 mM; NaHCO3 24.8 mM; KH2PO4 1.2 mM; glucose 11.0 mM) at a load of 1 g. The Magnus bath was constantly bubbled with a mixed gas (95% O2+5% CO2 gas). The tension of the strip was measured with an isomeric transducer (TB-611T, Nippon Koden) and depicted on a recorder (Ti-102, Tokai Irika).
The test system of another series is ddY mice. The series can be described thus: Acute toxicity in ddY mice. The conditions noted are these: intraperitoneal administration at 30 mg/kg, monitored for 5 days. Type of series: in vivo. The text has this: The compound 109.2HCl and compound 143.2HCl.H2O were respectively administered intraperitoneally to ddY mice and the mice were monitored for 5 days.

Another series addresses T2, p160ROCK (Homo sapiens, UniProt Q13464).
T2 construct: made in house; host or cells: COS cells (transient transfection, immunoprecipitated with 9E10 anti-myc antibody on protein G-Sepharose)
The series can be described thus: Inhibition of p160ROCK (myc-tagged, expressed in COS cells). The class given is biochemical. The conditions noted are these: enzyme expressed in COS cells. The protocol:
as §1
(§2) Rho Kinase Inhibitory Action (Inhibition of p160ROCK and ROCKII)
(§3) COS cells were seeded in a 3.5 cm dish and incubated overnight. […] After incubation for 20 hours, the cells were washed once with ice-cooled PBS, and the cells were lysed on ice for 20 minutes using a lysis buffer (20 mM Tris-HCl (pH=7.5), 1 mM EDTA, 1 mM EGTA, 5 mM MgCl2, 25 mM NaF, 10 mM β glycerophosphate, 5 mM sodium pyrophorphate, 0.2 mM phenylmethylsulfonyl fluoride, 2 mM dithiothreitol, 0.2 mM sodium vanadate, 0.05% Triton X-100, 0.1 μM calyculin A). The lysate was centrifuged at 10,000×g for 10 minutes and the supernatant was recovered. […] Then, protein G-Sepharose was added and the mixture was shaken for 2 more hours. […]

The target in another series is T3, ROCKII (Mus musculus, UniProt P70336).
T3 construct: made in house; host or cells: COS cells (transient transfection, immunoprecipitated with 9E10 anti-myc antibody on protein G-Sepharose)
T3 sequence (P70336 whole entry): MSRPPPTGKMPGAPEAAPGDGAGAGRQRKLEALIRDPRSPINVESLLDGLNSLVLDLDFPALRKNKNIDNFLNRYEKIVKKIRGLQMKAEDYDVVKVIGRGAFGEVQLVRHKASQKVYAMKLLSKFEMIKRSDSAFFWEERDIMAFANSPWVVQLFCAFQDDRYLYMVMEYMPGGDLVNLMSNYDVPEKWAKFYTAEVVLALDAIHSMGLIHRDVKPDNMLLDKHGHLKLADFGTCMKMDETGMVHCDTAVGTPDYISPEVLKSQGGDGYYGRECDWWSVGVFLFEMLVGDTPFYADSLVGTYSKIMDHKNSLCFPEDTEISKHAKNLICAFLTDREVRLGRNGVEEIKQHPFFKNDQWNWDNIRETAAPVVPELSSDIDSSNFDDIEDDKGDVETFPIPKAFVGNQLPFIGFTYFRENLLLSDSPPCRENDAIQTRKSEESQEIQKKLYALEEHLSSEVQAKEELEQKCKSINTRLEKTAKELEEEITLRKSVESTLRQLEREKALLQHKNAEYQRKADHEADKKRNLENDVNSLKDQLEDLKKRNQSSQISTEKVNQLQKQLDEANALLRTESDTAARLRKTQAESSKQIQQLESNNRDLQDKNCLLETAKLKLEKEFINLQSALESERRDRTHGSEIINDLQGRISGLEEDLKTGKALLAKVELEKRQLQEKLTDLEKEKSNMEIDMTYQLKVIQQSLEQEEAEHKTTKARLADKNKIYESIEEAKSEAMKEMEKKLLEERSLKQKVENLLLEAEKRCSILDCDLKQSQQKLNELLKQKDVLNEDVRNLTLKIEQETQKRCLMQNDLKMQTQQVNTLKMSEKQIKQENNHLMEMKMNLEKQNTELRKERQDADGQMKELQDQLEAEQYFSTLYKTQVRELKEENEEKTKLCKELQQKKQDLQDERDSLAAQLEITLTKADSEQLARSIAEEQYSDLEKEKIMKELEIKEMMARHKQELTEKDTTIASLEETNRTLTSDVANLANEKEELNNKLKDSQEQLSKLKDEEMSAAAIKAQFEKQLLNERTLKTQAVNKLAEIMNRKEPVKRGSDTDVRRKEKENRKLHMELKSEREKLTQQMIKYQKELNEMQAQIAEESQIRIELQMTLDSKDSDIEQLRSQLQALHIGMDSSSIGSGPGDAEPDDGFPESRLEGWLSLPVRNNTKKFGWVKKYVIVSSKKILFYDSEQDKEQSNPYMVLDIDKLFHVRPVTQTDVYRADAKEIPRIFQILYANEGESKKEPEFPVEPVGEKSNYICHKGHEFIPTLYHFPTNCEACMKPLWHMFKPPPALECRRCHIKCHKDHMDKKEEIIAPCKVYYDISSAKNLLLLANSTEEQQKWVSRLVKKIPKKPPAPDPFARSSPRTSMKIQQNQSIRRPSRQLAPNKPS
The series can be described thus: Inhibition of ROCKII (myc-tagged, expressed in COS cells). Type of series: biochemical. The note with it: enzyme expressed in COS cells; read-out: IC50 (μM) ROCK-II. How it is done:
as §1, §2, §3

T2 sequence (Q13464 whole entry): as the sequence (Q13464 whole entry) above

The inhibition is the drop in the measured response relative to a control, in per cent. `CC(N)[C@H]1CC[C@H](C(=O)Nc2ccncc2)CC1` (single isomer, unassigned; (+)) [Compound 80.2HCl.H2O, (+)-trans-4-(1-aminoethyl)-1-(4-pyridylcarbamoyl)cyclohexane]: in series [1], the “Increase in skin blood flow ± standard error (%)” value came to 135.0 ± 13.4%. For the same compound, the inhibition at 100 µM in series [2] came out at 70%.

As to `CC(N)[C@H]1CC[C@H](C(=O)Nc2ccnc3[nH]ccc23)CC1` (single isomer, unassigned; (+)) [Compound 109.2HCl, (+)-trans-N-(1H-pyrrolo[2,3-b]pyridin-4-yl)-4-(1-aminoethyl)cyclohexanecarboxamide], the IC50 in series [3] amounted to 110 nM; with Human SK-Mel-28 melanoma, 58000 nM; in series [4], 43 nM; on p160ROCK, 0.095 µM; at ROCKII, 0.048 µM. The “Acute toxicity (death)” value in the series on ddY mice is on record as “did not cause death”. The inhibition at 100 µM in series [2] was 67%.

Values taken from patent US6906061B2, “Pharmaceutical agent containing Rho kinase inhibitor” (Mitsubishi Pharma Corporation, priority 1996, dated 2005).
